Literature values as cited in patent US20230372346A1, “TREATMENT REGIMENS FOR EXON-20 INSERTION MUTANT EGFR CANCERS” (CULLINAN PEARL CORP., priority 2020, published 2023).

Conditions: human, in vivo; cited from earlier work

C=CC(=O)Nc1cc(Nc2ncc(C(=O)OC(C)C)c(-c3cn(C)c4ccccc34)n2)c(OC)cc1N(C)CCN(C)C [TAK-788, mobocertinib]
toxicity in the lowest-dose cohort where stable diseases or partial responses were observed: presented both grade 3 or above TRAEs and dose-limiting toxicities
